One experiment concerns NCI-H1793. The experiment in a line: relative viability (nuclei count vs DMSO), 5 days (fraction); higher = more cells survive. The following applies: first compound 8 µM. Put shortly: (§1)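 Dosing by pin tool came one day after lung cancer cell lines were seeded in 1536-well plates, using either one drug or a fixed anchor-drug dose plus five library-drug doses (not always all listed) in √10 steps. After 5 days, nuclei were counted on 4× images. Relative viability is treated-well nuclei count divided by vehicle-well nuclei count, and values are medians of duplicate plates.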
As for `CCCCCCCCCCCC1=C(O)C(=O)C=C(O)C1=O` [Embelin] + NC(=O)Nc1cc(-c2cccc(F)c2)sc1C(=O)N[C@H]1CCCNC1 [AZD7762] (partner 0.2 µM), the relative viability was 0.408.

Consider `CCCCCCCCCCCC1=C(O)C(=O)C=C(O)C1=O` [Embelin] + Cc1nc(NC(=O)N2CCC[C@H]2C(N)=O)sc1-c1ccnc(C(C)(C)C(F)(F)F)c1 [Alpelisib] (partner 2 µM), for which the relative viability is 0.728.

The test system of the next experiment is ABC-1. The experiment is described as above. To be noted: first compound 0.08 µM. Put shortly:
as §1
For the compound `CCCCCCCCCCCC1=C(O)C(=O)C=C(O)C1=O` [Embelin] + COc1cc2c(Oc3ccc(NC(=O)C4(C(=O)Nc5ccc(F)cc5)CC4)cc3F)ccnc2cc1OCCCN1CCOCC1 [Foretinib] (partner 0.25 µM), the relative viability was 1.17.

`CCCCCCCCCCCC1=C(O)C(=O)C=C(O)C1=O` [Embelin] + CS(=O)(=O)N1CCN(Cc2cc3nc(-c4cccc5[nH]ncc45)nc(N4CCOCC4)c3s2)CC1 [Pictilisib] (partner 1 µM) yielded a relative viability of 0.876.

In the case of `CCCCCCCCCCCC1=C(O)C(=O)C=C(O)C1=O` [Embelin] + NC(=O)Nc1cc(-c2cccc(F)c2)sc1C(=O)N[C@H]1CCCNC1 [AZD7762] (partner 0.2 µM), the relative viability amounted to 0.701.

As for `CCCCCCCCCCCC1=C(O)C(=O)C=C(O)C1=O` [Embelin] + Cc1nc(NC(=O)N2CCC[C@H]2C(N)=O)sc1-c1ccnc(C(C)(C)C(F)(F)F)c1 [Alpelisib] (partner 2 µM), the relative viability is 1.24.

The experiment is the same for the next values; noted with them: first compound 0.8 µM.
The compound `CCCCCCCCCCCC1=C(O)C(=O)C=C(O)C1=O` [Embelin] + COc1cc2c(Oc3ccc(NC(=O)C4(C(=O)Nc5ccc(F)cc5)CC4)cc3F)ccnc2cc1OCCCN1CCOCC1 [Foretinib] (partner 0.25 µM) displayed a relative viability of 1.12.

As for `CCCCCCCCCCCC1=C(O)C(=O)C=C(O)C1=O` [Embelin] + CS(=O)(=O)N1CCN(Cc2cc3nc(-c4cccc5[nH]ncc45)nc(N4CCOCC4)c3s2)CC1 [Pictilisib] (partner 1 µM), the relative viability is 0.861.

In turn, `CCCCCCCCCCCC1=C(O)C(=O)C=C(O)C1=O` [Embelin] + NC(=O)Nc1cc(-c2cccc(F)c2)sc1C(=O)N[C@H]1CCCNC1 [AZD7762] (partner 0.2 µM) gave a relative viability of 1.01.

`CCCCCCCCCCCC1=C(O)C(=O)C=C(O)C1=O` [Embelin] + Cc1nc(NC(=O)N2CCC[C@H]2C(N)=O)sc1-c1ccnc(C(C)(C)C(F)(F)F)c1 [Alpelisib] (partner 2 µM) gave a relative viability of 1.1.

Staying with this experiment, now noted: first compound 2.53 µM.
`CCCCCCCCCCCC1=C(O)C(=O)C=C(O)C1=O` [Embelin] + COc1cc2c(Oc3ccc(NC(=O)C4(C(=O)Nc5ccc(F)cc5)CC4)cc3F)ccnc2cc1OCCCN1CCOCC1 [Foretinib] (partner 0.25 µM) came in with a relative viability of 1.05.

For `CCCCCCCCCCCC1=C(O)C(=O)C=C(O)C1=O` [Embelin] + CS(=O)(=O)N1CCN(Cc2cc3nc(-c4cccc5[nH]ncc45)nc(N4CCOCC4)c3s2)CC1 [Pictilisib] (partner 1 µM), the relative viability worked out at 0.678.

`CCCCCCCCCCCC1=C(O)C(=O)C=C(O)C1=O` [Embelin] + NC(=O)Nc1cc(-c2cccc(F)c2)sc1C(=O)N[C@H]1CCCNC1 [AZD7762] (partner 0.2 µM) displayed a relative viability of 0.875.

`CCCCCCCCCCCC1=C(O)C(=O)C=C(O)C1=O` [Embelin] + Cc1nc(NC(=O)N2CCC[C@H]2C(N)=O)sc1-c1ccnc(C(C)(C)C(F)(F)F)c1 [Alpelisib] (partner 2 µM) returned a relative viability of 0.996.

The experiment is the same for the next values; noted with them: first compound 8 µM.
`CCCCCCCCCCCC1=C(O)C(=O)C=C(O)C1=O` [Embelin] + COc1cc2c(Oc3ccc(NC(=O)C4(C(=O)Nc5ccc(F)cc5)CC4)cc3F)ccnc2cc1OCCCN1CCOCC1 [Foretinib] (partner 0.25 µM): the relative viability came to 1.08.

As to `CCCCCCCCCCCC1=C(O)C(=O)C=C(O)C1=O` [Embelin] + CS(=O)(=O)N1CCN(Cc2cc3nc(-c4cccc5[nH]ncc45)nc(N4CCOCC4)c3s2)CC1 [Pictilisib] (partner 1 µM), the relative viability came to 0.646.

For `CCCCCCCCCCCC1=C(O)C(=O)C=C(O)C1=O` [Embelin] + NC(=O)Nc1cc(-c2cccc(F)c2)sc1C(=O)N[C@H]1CCCNC1 [AZD7762] (partner 0.2 µM), the relative viability amounted to 0.856.

`CCCCCCCCCCCC1=C(O)C(=O)C=C(O)C1=O` [Embelin] + Cc1nc(NC(=O)N2CCC[C@H]2C(N)=O)sc1-c1ccnc(C(C)(C)C(F)(F)F)c1 [Alpelisib] (partner 2 µM) had a relative viability of 1.18.

The next experiment relates to NCI-H1975. Described as above. To be noted: first compound 0.08 µM. The essentials: as §1
For `CCCCCCCCCCCC1=C(O)C(=O)C=C(O)C1=O` [Embelin] + COc1cc2c(Oc3ccc(NC(=O)C4(C(=O)Nc5ccc(F)cc5)CC4)cc3F)ccnc2cc1OCCCN1CCOCC1 [Foretinib] (partner 0.25 µM), the relative viability stood at 1.06.

Consider `CCCCCCCCCCCC1=C(O)C(=O)C=C(O)C1=O` [Embelin] + CC(=O)Nc1cccc(-n2c(=O)n(C3CC3)c(=O)c3c(Nc4ccc(I)cc4F)n(C)c(=O)c(C)c32)c1 [Trametinib] (partner 0.02 µM), for which the relative viability is 0.38.

For `CCCCCCCCCCCC1=C(O)C(=O)C=C(O)C1=O` [Embelin] + CS(=O)(=O)N1CCN(Cc2cc3nc(-c4cccc5[nH]ncc45)nc(N4CCOCC4)c3s2)CC1 [Pictilisib] (partner 1 µM), the relative viability stood at 0.343.

`CCCCCCCCCCCC1=C(O)C(=O)C=C(O)C1=O` [Embelin] + NC(=O)Nc1cc(-c2cccc(F)c2)sc1C(=O)N[C@H]1CCCNC1 [AZD7762] (partner 0.2 µM) gave a relative viability of 0.708.

On to `CCCCCCCCCCCC1=C(O)C(=O)C=C(O)C1=O` [Embelin] + Cc1nc(NC(=O)N2CCC[C@H]2C(N)=O)sc1-c1ccnc(C(C)(C)C(F)(F)F)c1 [Alpelisib] (partner 2 µM), for which the relative viability came to 0.663.

Staying with this experiment, now noted: first compound 0.8 µM.
With `CCCCCCCCCCCC1=C(O)C(=O)C=C(O)C1=O` [Embelin] + COc1cc2c(Oc3ccc(NC(=O)C4(C(=O)Nc5ccc(F)cc5)CC4)cc3F)ccnc2cc1OCCCN1CCOCC1 [Foretinib] (partner 0.25 µM), the relative viability worked out at 0.97.

Consider `CCCCCCCCCCCC1=C(O)C(=O)C=C(O)C1=O` [Embelin] + CC(=O)Nc1cccc(-n2c(=O)n(C3CC3)c(=O)c3c(Nc4ccc(I)cc4F)n(C)c(=O)c(C)c32)c1 [Trametinib] (partner 0.02 µM), for which the relative viability was 0.379.

The compound `CCCCCCCCCCCC1=C(O)C(=O)C=C(O)C1=O` [Embelin] + CS(=O)(=O)N1CCN(Cc2cc3nc(-c4cccc5[nH]ncc45)nc(N4CCOCC4)c3s2)CC1 [Pictilisib] (partner 1 µM) yielded a relative viability of 0.332.

The compound `CCCCCCCCCCCC1=C(O)C(=O)C=C(O)C1=O` [Embelin] + NC(=O)Nc1cc(-c2cccc(F)c2)sc1C(=O)N[C@H]1CCCNC1 [AZD7762] (partner 0.2 µM) registered a relative viability of 0.753.

Compound `CCCCCCCCCCCC1=C(O)C(=O)C=C(O)C1=O` [Embelin] + Cc1nc(NC(=O)N2CCC[C@H]2C(N)=O)sc1-c1ccnc(C(C)(C)C(F)(F)F)c1 [Alpelisib] (partner 2 µM) displayed a relative viability of 0.674.

The experiment is the same for the next values; noted with them: first compound 2.53 µM.
Turning to `CCCCCCCCCCCC1=C(O)C(=O)C=C(O)C1=O` [Embelin] + COc1cc2c(Oc3ccc(NC(=O)C4(C(=O)Nc5ccc(F)cc5)CC4)cc3F)ccnc2cc1OCCCN1CCOCC1 [Foretinib] (partner 0.25 µM), the relative viability came to 1.01.

The values above are taken from the supplement of paper PMC10307832.
